This is an account of results in ChEMBL document CHEMBL5257029, “Contemporary developments in the discovery of selective factor Xa inhibitors: A review” (Eur J Med Chem, 2016).

The test deals with Coagulation factor X (Homo sapiens, UniProt P00742). Nature of the test: Binding affinity to FXa (unknown origin) assessed as inhibition constant.
Sequence of Coagulation factor X (P00742 41-179 limits assumed): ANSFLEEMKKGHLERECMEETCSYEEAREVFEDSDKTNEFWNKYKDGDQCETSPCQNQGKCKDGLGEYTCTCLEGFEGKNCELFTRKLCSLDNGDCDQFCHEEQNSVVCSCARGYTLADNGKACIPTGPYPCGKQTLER
Sequence of Coagulation factor X (P00742 235-488 limits assumed): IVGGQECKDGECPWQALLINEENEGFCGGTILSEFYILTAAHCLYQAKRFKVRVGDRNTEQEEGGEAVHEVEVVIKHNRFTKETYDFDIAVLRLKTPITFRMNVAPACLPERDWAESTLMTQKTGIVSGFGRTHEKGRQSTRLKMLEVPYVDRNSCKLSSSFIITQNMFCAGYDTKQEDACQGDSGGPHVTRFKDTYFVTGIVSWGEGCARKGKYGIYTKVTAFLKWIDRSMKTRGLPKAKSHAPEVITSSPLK
The term Ki denotes a measure of affinity in units of concentration, obtained from inhibition or displacement. As for `NCc1cccc(-n2nc(C(F)(F)F)cc2C(=O)Nc2ccc(-c3ccccc3S(N)(=O)=O)cc2F)c1`, the Ki came to 0.91 nM.
The result for `N=C(N)c1ccc(C[C@@H](NC(=O)NC23CC4CC(CC(C4)C2)C3)C(=O)NCCc2ccccc2)cc1` reads 25 nM; that for `CC(C)N1CCC(NS(=O)(=O)CCNC(=O)c2ccc(Cl)s2)CC1`, 2 nM.
